{"source": "patent US20060030720A1", "about": "“Method for synthesizing macrosphelides” (priority 2002, published 2006)"}
{"smiles": "C[C@H]1C/C=C/C(=O)O[C@@H](C)CC(=O)O[C@@H](C)C/C=C/C(=O)O1", "note": "[Example 1]", "values": [{"measurement": "melting point", "value": "94 to 95", "unit": "°C"}]}
